The target in one test is T1, HIV-1 Protease (Human immunodeficiency virus type 1 group M subtype B, UniProt P04585).
T1 construct: purchased Bachem Bioscience Inc
The test can be described thus: HIV Protease Inhibition (hydrolysis of undecapeptide Substrate III, HPLC). The class given is biochemical. The method, then:
1.0 mM dithiothreitol (DTT) was prepared fresh daily in 0.1% polyethylene glycol (mw 8000) 80 mM NaOAc, 160 mM NaCl, 1.0 mM EDTA, and brought to pH 4.7 with HCl.
The enzyme is obtained from Bachem Bioscience Inc. The undiluted enzyme is thawed from -80° C. and diluted 50-fold with DTT buffer. The solution is always kept at 0° C. on ice water and used in the experiment within 20 minutes after thawing.
Substrate III from Bachem Bioscience Inc. is the undecapeptide H-His-Lys-Ala-Arg-Val-Leu-p-Nitrophenylalanine-Glu-Ala-Norleucine-Ser-NH2 (>97% purity). A 200 μM stock solution in DTT buffer is prepared and stored on ice. Substrate solution is prepared fresh daily.
10 mM inhibitor (I) in dimethyl sulfoxide (DMSO) is diluted to 200 μM with DTT buffer. From the 200 μM stock solution is made a 10 μM stock solution with 2% DMSO in DTT buffer. The two inhibitor solutions are used to make final (I)=100, 50, 20, 10, 5, 0.5 and 0 μM with 2% DMSO in DTT buffer in each reaction well (total inhibitor volume of 50 μl).
To each reaction well is added 20 μl of substrate (final concentration of 40 μM), 50 μl of inhibitor (at a concentration such that final dilution will produce the test concentration) and 20 μl of DTT buffer. The reaction plate (96 wells) is incubated at 37° C. for at least 5 minutes.
10 μl of the diluted protease is added to the reaction well while the reaction plate is shaking. Once shaken for 10 seconds, the plate is returned to the heating block at 37° C. (Final reaction volume=100 μl)
The reaction is incubated for 5 minutes at 37° C. The reaction is stopped by placing the reaction plate on the shaker and adding 20 μl of 10% trifluoroacetic acid (TFA) and shaking for 10 seconds. The amount of proteolysis is then determined by separation of noncleaved substrate and two cleaved products with reverse-phase HPLC, while measuring absorbance at 220 nm to determine the relative peak areas of the three components. The relative peak areas are used to calculate % conversion to product as a function of inhibitor concentration. The data is plotted as % Control (the ratio of % conversion in the presence and absence of inhibitor×100) versus inhibitor concentration and fit with the equation Y=100/1+(X/IC50)^A, where IC50 is the inhibitor concentration at 50% inhibition and A is the slope of the inhibition curve.

The test system of the next test is HIV-1iiib. In words: Anti-HIV-1 activity in H9 cells (acute infection, reverse transcriptase assay). The class given is cell-based. To be noted: Human immunodeficiency virus 1, acute HIV-1iiib infection, multiplicity of infection 0.01, 4 and 7 days post infection, 0.2% DMSO, read-out: Therapeutic Concentration for 50% Protection of Cells. The method, then: Using the general methods of Pauwels et al., (J. Virol. Methods, 16: 171-185 (1987) and Mann et al. (AIDS Research and Human Retroviruses, 253-255 (1989)) anti-viral assays of acute HIV-1 infection were performed in the H9 cell line. Cultures were batch infected in 1 ml of RPM1 1640 media/10% fetal calf serum containing 10^7 cells and 10^5 infectious doses of HIV-1iiib for an effective multiplicity of infection of 0.01. After 2 hours of viral absorption, cells were washed once and plated in 96-well microtiter plates at a density of 10^4 cells per well. Test compounds were added to produce the desired concentration of drug and 0.2% DMSO in a final volume of 200 μl. Uninfected parallel cultures were maintained for XTT cytotoxicity assay at 7 days post infection. Cultures were tested for viral replication by reverse transcriptase assay at 4 and 7 days post infection.

A further test has as its system HIV. To be noted: R. Nagorny et al., AIDS, 7: 129-130 (1993); cited from earlier work.
Setting [1] is: pH 4.7, 37° C., 40 μM substrate, 2% DMSO, 5 minutes, read-out: 50% Inhibition Concentration.

Molecules are shown by their SMILES. Like-named read-outs stand apart in the source and are kept apart here.

Here are results for 13 molecules from US5510375A, “Coumarin derivatives as protease inhibitors and antiviral agents” (Warner-Lambert Company, priority 1993, dated 1996).

Regarding `COc1ccc(OCCCc2c(O)c3ccccc3oc2=O)cc1` [Example 4, 4-Hydroxy-3-3-(4-methoxyphenoxy)propyl!-2H-1-bensopyran-2-one], on HIV-1 Protease (setting [1]), the IC50 stood at 1.9 µM.
On to `O=c1oc2ccccc2c(O)c1CCCOc1cccc(Cl)c1` [Example 7, 3-3-(3-Chlorophenoxy)propyl!-4-hydroxy-2H-1-benzopyran-2-one], for which, on HIV-1 Protease, the IC50 came to 1.3 µM.
As for `CCOC(=O)c1cccc(OCCCc2c(O)c3ccccc3oc2=O)c1` [Example 8, Ethyl 3-3-(4-hydroxy-2-oxo-2H-1-benzopyran-3-yl)propoxy!benzoate], the EC50 in the test with HIV-1iiib is 58 µM. Also, the IC50 at HIV-1 Protease (read-out: 50% Inhibition Concentration) worked out at 0.5 µM.
With `O=C(O)c1cccc(OCCCc2c(O)c3ccccc3oc2=O)c1` [Example 9, 3-3-(4-Hydroxy-2-oxo-2H-1-benzopyran-3-yl)propoxy!benzoic acid], the IC50 on HIV-1 Protease (setting [1]) was found to be 5 µM.
Regarding `O=c1oc2ccccc2c(O)c1CCCOc1cccc(CO)c1` [Example 10, 4-Hydroxy-3-3-(3-hydroxymethylphenoxy)propyl!-2H-1-benzopyran-2-one], the IC50 at HIV-1 Protease (setting [1]) came out at 1.2 µM.
In the case of `COc1ccccc1CCCCc1c(O)c2ccccc2oc1=O` [Example 13, 4-Hydroxy-3-4-(2-methoxyphenyl)butyl!-2H-1-benzopyran-2-one], the EC50 with HIV-1iiib is 13 µM. At HIV-1 Protease (setting [1]), the IC50 was 1.7 µM.
As to `O=c1oc2ccccc2c(O)c1CCCCc1ccccc1O` [Example 14, 4-Hydroxy-3-4-(2-hydroxyphenyl)butyl!-2H-1-benzopyran-2-one], the IC50 on HIV-1 Protease (setting [1]) was 2.8 µM.
In turn, `COc1ccc2c(O)c(CCCCc3ccccc3OC)c(=O)oc2c1` [Example 22, 4-Hydroxy-7-methoxy-3-4-(2-methoxyphenyl)butyl!-2H-1-benzopyran-2-one] gave an IC50 on HIV-1 Protease of 1.4 µM.
Turning to `COc1ccccc1CCCCc1c(O)c2cccc(C)c2oc1=O` [Example 23, 4-Hydroxy-3-4-(2-methoxyphenyl)butyl!-8-methyl-2H-1-benzopyran-2-one], the IC50 at HIV-1 Protease (setting [1]) is 5 µM.
At HIV-1 Protease, `N#Cc1cccc(OCCCc2c(O)c3ccccc3oc2=O)c1` [Example 37, 3-3-(3-Cyanophenoxy)propyl!-4-hydroxy-2H-1-benzopyran-2-one] showed an IC50 of 0.6 µM.
`O=c1oc2ccccc2c(O)c1C(SC1CCCCC1)c1ccccc1` (stereo not drawn) [Example 42, 3-(Cyclohexylthio)phenylmethyl!-4-hydroxy-2H-1-benzopyran-2-one] came in with an IC50 against HIV-1 Protease of 0.4 µM.
Turning to `COc1ccccc1CCCCc1c(O)c2ccc(O)cc2oc1=O` [Example 43, 4,7-Dihydroxy-3-4-(2-methoxyphenyl)butyl!-2H-1-benzopyran-2-one], at HIV-1 Protease (setting [1]), the IC50 is 0.5 µM.
For the molecule `CC(=O)CC(c1ccccc1)c1c(O)c2ccccc2oc1=O` (stereo not drawn) [Warfarin, 3-(α-acetonylbenzyl)4-hydroxycoumarin], in the test on HIV, the “inhibiting cell-free and cell-mediated HIV infection” value is “inhibiting cell-free and cell-mediated HIV infection”.
